{"source": "ChEMBL document CHEMBL3351564", "about": "“Discovery of a phosphodiesterase 9A inhibitor as a potential hypoglycemic agent” (J Med Chem, 2014)", "key": {"[1]": {"biological_target": "High affinity cGMP-specific 3',5'-cyclic phosphodiesterase 9A (Homo sapiens, UniProt O76083)", "sequence (O76083 whole entry, the tested form may be a part)": "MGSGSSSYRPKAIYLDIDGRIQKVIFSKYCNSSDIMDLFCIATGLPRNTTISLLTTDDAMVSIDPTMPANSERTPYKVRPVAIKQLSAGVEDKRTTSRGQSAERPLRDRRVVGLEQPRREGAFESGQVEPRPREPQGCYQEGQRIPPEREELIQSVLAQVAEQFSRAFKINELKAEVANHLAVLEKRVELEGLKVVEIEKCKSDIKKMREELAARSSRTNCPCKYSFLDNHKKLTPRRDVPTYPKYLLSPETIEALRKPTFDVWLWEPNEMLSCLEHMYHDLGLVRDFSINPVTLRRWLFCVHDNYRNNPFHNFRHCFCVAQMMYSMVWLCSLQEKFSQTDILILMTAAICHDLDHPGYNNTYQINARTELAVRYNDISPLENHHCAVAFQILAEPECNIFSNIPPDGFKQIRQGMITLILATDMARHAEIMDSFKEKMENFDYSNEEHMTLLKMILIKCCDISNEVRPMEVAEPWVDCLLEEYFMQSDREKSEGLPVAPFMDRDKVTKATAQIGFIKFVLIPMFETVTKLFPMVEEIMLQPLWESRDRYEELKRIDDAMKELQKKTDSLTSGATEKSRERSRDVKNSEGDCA", "assay": "Inhibition of PDE9A2 catalytic domain (unknown origin) using [3H]-cGMP/[3H]-cAMP as substrate after 15 mins by liquid scintillation counting analysis"}, "[2]": {"biological_target": "High affinity 3',5'-cyclic-AMP phosphodiesterase 7A (Homo sapiens, UniProt Q13946)", "sequence (Q13946 whole entry, the tested form may be a part)": "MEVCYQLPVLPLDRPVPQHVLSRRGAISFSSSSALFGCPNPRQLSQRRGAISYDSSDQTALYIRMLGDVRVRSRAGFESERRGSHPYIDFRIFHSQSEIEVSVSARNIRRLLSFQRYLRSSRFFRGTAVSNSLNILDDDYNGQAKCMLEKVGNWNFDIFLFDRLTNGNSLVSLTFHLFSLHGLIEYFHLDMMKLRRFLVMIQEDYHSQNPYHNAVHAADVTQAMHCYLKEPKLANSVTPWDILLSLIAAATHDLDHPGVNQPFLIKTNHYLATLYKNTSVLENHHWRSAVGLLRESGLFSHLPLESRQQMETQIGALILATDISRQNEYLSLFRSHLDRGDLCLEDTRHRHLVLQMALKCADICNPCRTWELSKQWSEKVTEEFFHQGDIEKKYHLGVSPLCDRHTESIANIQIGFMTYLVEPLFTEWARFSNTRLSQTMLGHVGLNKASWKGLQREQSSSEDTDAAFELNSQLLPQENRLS", "assay": "Inhibition of PDE7A1 catalytic domain (unknown origin) using [3H]-cGMP/[3H]-cAMP as substrate after 15 mins by liquid scintillation counting analysis"}, "[3]": {"biological_target": "High affinity cAMP-specific and IBMX-insensitive 3',5'-cyclic phosphodiesterase 8A (Homo sapiens, UniProt O60658)", "sequence (O60658 whole entry, the tested form may be a part)": "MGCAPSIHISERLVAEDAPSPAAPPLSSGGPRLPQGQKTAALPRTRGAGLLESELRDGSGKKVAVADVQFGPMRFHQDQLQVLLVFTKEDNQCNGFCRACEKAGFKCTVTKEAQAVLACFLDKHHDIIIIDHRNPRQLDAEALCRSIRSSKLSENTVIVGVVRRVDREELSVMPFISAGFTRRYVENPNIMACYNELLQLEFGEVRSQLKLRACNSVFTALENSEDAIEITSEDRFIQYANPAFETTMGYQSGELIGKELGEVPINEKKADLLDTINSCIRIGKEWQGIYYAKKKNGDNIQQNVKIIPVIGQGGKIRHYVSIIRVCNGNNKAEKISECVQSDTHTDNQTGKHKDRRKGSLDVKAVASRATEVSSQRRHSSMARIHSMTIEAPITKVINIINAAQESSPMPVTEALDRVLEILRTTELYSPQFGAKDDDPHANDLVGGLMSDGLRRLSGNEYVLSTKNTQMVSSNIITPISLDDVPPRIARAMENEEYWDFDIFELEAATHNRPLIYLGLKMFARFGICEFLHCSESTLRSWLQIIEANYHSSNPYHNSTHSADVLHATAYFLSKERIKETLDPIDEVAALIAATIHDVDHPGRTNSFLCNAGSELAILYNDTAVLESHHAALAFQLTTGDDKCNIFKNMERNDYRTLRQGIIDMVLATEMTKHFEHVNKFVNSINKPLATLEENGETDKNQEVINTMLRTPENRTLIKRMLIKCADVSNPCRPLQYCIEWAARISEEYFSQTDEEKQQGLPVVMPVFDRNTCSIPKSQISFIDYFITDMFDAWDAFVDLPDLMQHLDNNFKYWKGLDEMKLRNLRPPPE", "assay": "Inhibition of PDE8A1 catalytic domain (unknown origin) using [3H]-cGMP/[3H]-cAMP as substrate after 15 mins by liquid scintillation counting analysis"}, "[4]": {"biological_target": "cGMP-dependent 3',5'-cyclic phosphodiesterase (Homo sapiens, UniProt O00408)", "sequence (O00408 whole entry, the tested form may be a part)": "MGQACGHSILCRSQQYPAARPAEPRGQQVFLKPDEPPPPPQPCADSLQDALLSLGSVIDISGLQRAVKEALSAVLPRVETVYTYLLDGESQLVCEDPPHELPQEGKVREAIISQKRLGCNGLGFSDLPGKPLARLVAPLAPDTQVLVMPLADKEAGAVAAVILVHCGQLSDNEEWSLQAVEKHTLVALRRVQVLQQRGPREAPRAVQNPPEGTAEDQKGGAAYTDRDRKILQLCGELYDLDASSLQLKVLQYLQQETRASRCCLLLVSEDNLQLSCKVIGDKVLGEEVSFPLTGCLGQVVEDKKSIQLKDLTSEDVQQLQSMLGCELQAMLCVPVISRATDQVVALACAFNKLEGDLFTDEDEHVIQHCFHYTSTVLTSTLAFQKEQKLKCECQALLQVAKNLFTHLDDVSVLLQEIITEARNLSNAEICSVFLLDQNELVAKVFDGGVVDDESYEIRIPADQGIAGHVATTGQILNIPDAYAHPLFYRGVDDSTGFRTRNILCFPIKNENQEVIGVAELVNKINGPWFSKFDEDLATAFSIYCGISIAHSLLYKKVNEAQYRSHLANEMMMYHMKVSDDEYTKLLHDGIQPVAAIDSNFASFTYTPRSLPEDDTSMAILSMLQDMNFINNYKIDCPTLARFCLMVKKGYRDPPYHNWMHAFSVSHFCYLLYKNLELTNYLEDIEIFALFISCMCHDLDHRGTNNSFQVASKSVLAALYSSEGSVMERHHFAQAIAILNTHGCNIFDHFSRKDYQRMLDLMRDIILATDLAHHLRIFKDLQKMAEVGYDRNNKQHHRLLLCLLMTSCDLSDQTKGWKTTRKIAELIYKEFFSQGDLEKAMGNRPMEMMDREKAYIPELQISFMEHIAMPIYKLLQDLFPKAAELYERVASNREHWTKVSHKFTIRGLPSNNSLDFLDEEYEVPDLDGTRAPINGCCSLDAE", "assay": "Inhibition of PDE2A3 catalytic domain (unknown origin) using [3H]-cGMP/[3H]-cAMP as substrate after 15 mins by liquid scintillation counting analysis"}, "[5]": {"biological_target": "cGMP-inhibited 3',5'-cyclic phosphodiesterase 3A (Homo sapiens, UniProt Q14432)", "sequence (Q14432 whole entry, the tested form may be a part)": "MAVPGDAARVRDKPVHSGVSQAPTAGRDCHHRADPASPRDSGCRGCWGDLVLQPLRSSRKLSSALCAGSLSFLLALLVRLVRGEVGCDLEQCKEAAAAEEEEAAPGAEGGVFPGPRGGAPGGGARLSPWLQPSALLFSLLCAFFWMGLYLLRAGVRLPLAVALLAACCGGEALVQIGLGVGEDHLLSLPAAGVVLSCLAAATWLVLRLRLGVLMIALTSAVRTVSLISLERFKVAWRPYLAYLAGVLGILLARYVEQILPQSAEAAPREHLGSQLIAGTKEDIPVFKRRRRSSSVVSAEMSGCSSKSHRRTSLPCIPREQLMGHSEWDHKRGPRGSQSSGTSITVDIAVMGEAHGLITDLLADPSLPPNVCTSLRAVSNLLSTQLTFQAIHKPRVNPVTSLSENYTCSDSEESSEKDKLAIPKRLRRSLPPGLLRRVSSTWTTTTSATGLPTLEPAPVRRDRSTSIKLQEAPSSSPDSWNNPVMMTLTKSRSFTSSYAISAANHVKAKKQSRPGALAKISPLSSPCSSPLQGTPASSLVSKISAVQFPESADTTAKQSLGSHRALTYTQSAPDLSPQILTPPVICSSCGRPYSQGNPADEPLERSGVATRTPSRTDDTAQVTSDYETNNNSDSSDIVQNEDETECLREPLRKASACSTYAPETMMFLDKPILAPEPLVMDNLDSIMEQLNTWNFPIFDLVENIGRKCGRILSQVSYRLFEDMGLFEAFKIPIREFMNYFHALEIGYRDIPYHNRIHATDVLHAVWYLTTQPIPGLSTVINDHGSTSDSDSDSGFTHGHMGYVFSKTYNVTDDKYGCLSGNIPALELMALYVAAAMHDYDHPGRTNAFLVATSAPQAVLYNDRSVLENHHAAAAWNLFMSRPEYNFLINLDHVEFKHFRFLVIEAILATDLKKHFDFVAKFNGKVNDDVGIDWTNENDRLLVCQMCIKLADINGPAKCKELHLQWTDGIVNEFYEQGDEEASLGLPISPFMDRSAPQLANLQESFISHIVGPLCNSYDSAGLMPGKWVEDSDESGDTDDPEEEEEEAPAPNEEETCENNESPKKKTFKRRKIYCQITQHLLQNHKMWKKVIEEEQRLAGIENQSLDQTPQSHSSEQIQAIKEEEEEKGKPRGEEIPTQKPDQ", "assay": "Inhibition of PDE3A catalytic domain (unknown origin) using [3H]-cGMP/[3H]-cAMP as substrate after 15 mins by liquid scintillation counting analysis"}, "[6]": {"assay": "Plasma protein binding in human at 1 to 5 uM after 4 hrs by LC/MS/MS analysis", "type": "ADME, cell-free", "conditions": "read-out: PPB"}, "[7]": {"assay": "Solubility of the compound in simulated gastric fluid at pH 1.4 after 24 to 48 hrs by HPLC analysis", "type": "ADME", "conditions": "simulated gi fluid"}, "[8]": {"assay": "Solubility of the compound in simulated intestinal fluid at pH 6.8 after 24 to 48 hrs by HPLC analysis", "type": "ADME", "conditions": "simulated gi fluid"}, "HepG2 [9]": {"test_system": "HepG2", "assay": "Hypoglycemic effect in human HepG2 cells assessed as reduction of 8-Br-cAMP/dexamethasone-induced G-6-Pase mRNA expression at 100 nM (reference value: 233%)", "type": "functional", "design": "scale not given: the % may be the effect or the level left"}, "HepG2 [10]": {"test_system": "HepG2", "assay": "Hypoglycemic effect in human HepG2 cells assessed as reduction of 8-Br-cAMP/dexamethasone-induced G-6-Pase mRNA expression at 10 nM (reference value: 233%)", "type": "functional", "design": "scale not given: the % may be the effect or the level left"}, "HepG2 [11]": {"test_system": "HepG2", "assay": "Hypoglycemic effect in human HepG2 cells assessed as reduction of 8-Br-cAMP/dexamethasone-induced PEPCK mRNA expression at 1000 nM (reference value: 184%)", "type": "functional", "design": "scale not given: the % may be the effect or the level left"}, "HepG2 [12]": {"test_system": "HepG2", "assay": "Hypoglycemic effect in human HepG2 cells assessed as reduction of 8-Br-cAMP/dexamethasone-induced PEPCK mRNA expression at 100 nM (reference value: 184%)", "type": "functional", "design": "scale not given: the % may be the effect or the level left"}, "HepG2 [13]": {"test_system": "HepG2", "assay": "Hypoglycemic effect in human HepG2 cells assessed as reduction of 8-Br-cAMP/dexamethasone-induced PEPCK mRNA expression at 10 nM (reference value: 184%)", "type": "functional", "design": "scale not given: the % may be the effect or the level left"}, "Liver": {"test_system": "Liver", "assay": "Half life in CD-1 mouse liver microsomes at […] incubated for 5 mins prior to NADPH addition measured after 30 mins by LC/MS/MS analysis", "type": "ADME", "conditions": "0.5 h"}, "[14]": {"assay": "Apparent clearance in CD-1 mouse liver microsomes at […] incubated for 5 mins prior to NADPH addition measured after 30 mins by LC/MS/MS analysis", "type": "ADME", "conditions": "read-out: CL(app)"}, "[15]": {"assay": "Hepatic clearance in CD-1 mouse liver microsomes at […] incubated for 5 mins prior to NADPH addition measured after 30 mins by LC/MS/MS analysis", "type": "ADME"}, "Mus musculus [16]": {"test_system": "Mus musculus", "assay": "Acute toxicity in KM mouse assessed as poisoned symptom at 1 to 1200 mg/kg, po measured up to 2 weeks", "type": "organism-based", "design": "dose 1-1200 mg/kg, route oral", "conditions": "in vivo, 336 h"}, "Mus musculus [17]": {"test_system": "Mus musculus", "assay": "Acute toxicity in KM mouse assessed as mortality at 1 to 1200 mg/kg, po measured up to 2 weeks", "type": "organism-based", "design": "dose 1-1200 mg/kg, route oral", "conditions": "in vivo, 336 h"}, "Mus musculus [18]": {"test_system": "Mus musculus", "assay": "Acute toxicity in KM mouse assessed as abnormal behaviour at 1 to 1200 mg/kg, po measured up to 2 weeks", "type": "organism-based", "design": "dose 1-1200 mg/kg, route oral", "conditions": "in vivo, 336 h"}, "Mus musculus [19]": {"test_system": "Mus musculus", "assay": "Acute toxicity in KM mouse assessed as change in water/food consumption at 1 to 1200 mg/kg, po measured up to 2 weeks", "type": "organism-based", "design": "dose 1-1200 mg/kg, route oral", "conditions": "in vivo, 336 h"}, "Mus musculus [20]": {"test_system": "Mus musculus", "assay": "Acute toxicity in KM mouse assessed as change in body weight at 1 to 1200 mg/kg, po measured up to 2 weeks", "type": "organism-based", "design": "dose 1-1200 mg/kg, route oral", "conditions": "in vivo, 336 h"}, "HepG2 [21]": {"test_system": "HepG2", "assay": "Hypoglycemic effect in human HepG2 cells assessed as reduction of 8-Br-cAMP/dexamethasone-induced G-6-Pase mRNA expression at 1000 nM (reference value: 233%)", "type": "functional", "design": "scale not given: the % may be the effect or the level left"}, "in vitro": {"assay": "in vitro", "conditions": "CD-1, mouse, liver microsomes"}}, "data": [{"smiles": "COc1ccc(NC(=O)[C@@H](C)Nc2nc3c(cnn3-c3ccccc3Cl)c(=O)[nH]2)cc1", "values": [{"measurement": "IC50", "setting": "[1]", "value": 0.0064, "unit": "µM"}, {"measurement": "IC50", "setting": "[2]", "value": 51.2, "unit": "µM"}, {"measurement": "IC50", "setting": "[3]", "value": "> 100", "unit": "µM"}]}, {"smiles": "COc1ccc(NC(=O)[C@H](C)Nc2nc3c(cnn3-c3ccccc3Cl)c(=O)[nH]2)cc1", "values": [{"measurement": "IC50", "setting": "[2]", "value": "> 100", "unit": "µM"}, {"measurement": "IC50", "setting": "[3]", "value": "> 100", "unit": "µM"}, {"measurement": "IC50", "setting": "[4]", "value": "> 50", "unit": "µM"}, {"measurement": "IC50", "setting": "[5]", "value": "> 50", "unit": "µM"}, {"measurement": "fraction unbound at 4 h, up to 5 µM", "setting": "[6]", "value": "< 0.057"}, {"measurement": "solubility", "setting": "[7]", "value": 8, "unit": "µg/mL"}, {"measurement": "solubility", "setting": "[8]", "value": 13, "unit": "µg/mL"}]}, {"smiles": "COc1ccc(NC(=O)[C@@H](C)Nc2nc3c(cnn3C3CCCC3)c(=O)[nH]2)cc1", "values": [{"measurement": "Activity", "setting": "HepG2 [9]", "value": 93.2, "unit": "%"}, {"measurement": "Activity", "setting": "HepG2 [10]", "value": 98.4, "unit": "%"}, {"measurement": "Activity", "setting": "HepG2 [11]", "value": 105, "unit": "%"}, {"measurement": "Activity", "setting": "HepG2 [12]", "value": 96.5, "unit": "%"}, {"measurement": "Activity", "setting": "HepG2 [13]", "value": 108, "unit": "%"}, {"measurement": "IC50", "setting": "[3]", "value": "> 100", "unit": "µM"}, {"measurement": "IC50", "setting": "[4]", "value": 13, "unit": "µM"}, {"measurement": "fraction unbound at 4 h, up to 5 µM", "setting": "[6]", "value": "< 0.057"}, {"measurement": "solubility", "setting": "[7]", "value": 26, "unit": "µg/mL"}, {"measurement": "t1/2", "setting": "Liver", "value": 22.3, "unit": "min"}, {"measurement": "CLint scaled at […]", "setting": "[14]", "value": 244, "unit": "mL/min/kg"}, {"measurement": "CLhep predicted at […]", "setting": "[15]", "value": 65.8, "unit": "mL/min/kg"}, {"measurement": "Activity", "setting": "Mus musculus [16]", "value": "Non-toxic"}, {"measurement": "Activity", "setting": "Mus musculus [17]", "value": "Non-toxic"}, {"measurement": "Activity", "setting": "Mus musculus [18]", "value": "Non-toxic"}, {"measurement": "Activity", "setting": "Mus musculus [19]", "value": "Non-toxic"}, {"measurement": "Activity", "setting": "Mus musculus [20]", "value": "Non-toxic"}, {"measurement": "Activity", "setting": "HepG2 [21]", "value": 97.2, "unit": "%"}]}, {"smiles": "COc1ccc(NC(=O)[C@H](C)Nc2nc3c(cnn3C3CCCC3)c(=O)[nH]2)cc1", "values": [{"measurement": "IC50", "setting": "[3]", "value": "> 100", "unit": "µM"}, {"measurement": "fraction unbound at 4 h, up to 5 µM", "setting": "[6]", "value": "< 0.057"}, {"measurement": "solubility", "setting": "[7]", "value": 23, "unit": "µg/mL"}, {"measurement": "solubility", "setting": "[8]", "value": 31, "unit": "µg/mL"}]}, {"smiles": "C[C@]12CC[C@H]3[C@@H](CCC4=CC(=O)CC[C@@]43C)[C@@H]1CC[C@@H]2O", "note": "[TESTOSTERONE]", "values": [{"measurement": "t1/2", "setting": "Liver", "value": 2, "unit": "min"}, {"measurement": "CLint scaled at […]", "setting": "[14]", "value": 2730, "unit": "mL/min/kg"}, {"measurement": "CLhep predicted at […]", "setting": "[15]", "value": 87.1, "unit": "mL/min/kg"}, {"measurement": "hepatic extraction ratio at 0.5 h, […]", "setting": "in vitro", "value": 0.968}]}, {"smiles": "CC(=O)CC(c1ccccc1)c1c(O)c2ccccc2oc1=O", "note": "(stereo not drawn) [WARFARIN]", "values": [{"measurement": "CLint scaled at […]", "setting": "[14]", "value": 30.9, "unit": "mL/min/kg"}, {"measurement": "CLhep predicted at […]", "setting": "[15]", "value": 23, "unit": "mL/min/kg"}]}]}
